Usually MIC stands for the least concentration at which growth counts as inhibited. For orientation: MBC means the smallest concentration meeting the test's criterion for killing. A low value points to more potent killing.

These results are taken from article PMC5830399, “Aggregating sequences that occur in many proteins constitute weak spots of bacterial proteostasis” (Nature Communications, 2018).

Common to all, as to format: cell-based, Escherichia coli
Assay [1] concerns E. coli O157:H7. Description: Flow cytometry of bacteria treated with FITC peptides (uptake) and propidium iodide. As to conditions: for cells positive for FITC (peptide uptake): E. coli O157:H7, FITC-labeled peptide at MIC, flow cytometry; for PI-positive cells (membrane permeabilization): E. coli O157:H7, peptide at MIC, N = 4. The procedure: Using a double staining technique with propidium iodide (PI) and FITC peptides, killing rate and peptide uptake were evaluated in a two-dimensional analysis. Briefly, end-exponential growth phase E. coli O157 cells (10^8 CFU/mL) were washed with PBS and treated with peptides (P2 or Pro2/ FITC labeled) at MIC value for different time periods. Treated bacteria were again washed with PBS buffer three times. One microliter of PI (Invitrogen) was added to the bacteria, and after incubation for 5 min, the mixture was aliquoted (500 µL) into FACS tubes. To correlate the activity of the peptides with cell death, the fluorescence intensity was measured in two channels using the Gallios^TM Flow Cytometer, PI: excitation 536 nm and emission 617 nm, FITC: excitation 490 nm and emission 525 nm. Heated bacteria at 90 °C for 10 min were used as PI-positive control.
(In general: Flow cytometry measures light scatter and fluorescence of single cells or particles in a stream.)

Assay [2] relates to E. coli O157:H7. Particulars: E. coli O157(:H7); HPLC-purified peptide; broth microdilution (EUCAST), LB, overnight 37 °C, OD 590 nm. Here is the method:
The MICs of active peptides were determined via the Broth microdilution assay according to the EUCAST guideline, which was performed in 96-well polystyrene flat bottom microtiter plates (BD Biosciences). Briefly, a single colony was inoculated into 5 mL LB medium and grown to the end-exponential growth phase in a shaking incubator at 37 °C. Cultures were subsequently diluted to an OD600 (optical density) of 0.002 ([…]) in fresh LB medium. One hundred microliters of LB medium with different concentration of peptides ranging from 100 to 0.75 µg/mL were serially diluted to the sterile 96-well plate (at least three wells in each plate). Afterwards, 100 µL of the diluted bacteria were pipetted into 96-well plates containing different concentration of peptides. In each plate, the grown bacteria with the maximum concentration of carrier and medium were considered as positive and negative controls, respectively. Thereafter, 96-well plates were statically incubated overnight at 37 °C to allow bacterial growth. OD was measured at 590 nm for 1 s using a multipurpose ultraviolet–visible plate reader, and the absorbance of the growth bacteria was measured using a Perkin Elmer spectrophotometer (1420 Multilabel Counter Victor 3).
(In general: In broth dilution the organism is exposed to a series of concentrations in liquid medium.)

The subject of the next assay is E. coli O157. Particulars: HPLC-purified peptide. The source says:
In order to investigate whether APR redundancy does result in proteostatic collapse, we selected resynthesized and high-performance liquid chromatography (HPLC)-purified four positive peptides from the screen, P2, P5, P14, and P105, as well as three negative peptides, P3, P4, and P11, and confirmed their MIC and minimum bactericidal concentration (MBC) values (Table 1). […] These IBs, which are also called large polar aggregates, could be stained with pentameric formyl thiophene acetic acid (pFTAA, Fig. 1j and supplementary Fig. 3), an extensively characterized amyloid-specific dye[20]–[22], which specifically binds to amyloid-like aggregates as well as disease-associated protein IBs[22]. This IB-staining pattern could be observed for all bactericidal peptides, but not for any of the other peptides, although some other pFTAA-positive structures could be discerned (Supplementary Fig. 3). We confirmed the cross-β-structure content of IB using thioflavin-T staining and correlative atomic force microscopy nanoimaging and Fourier transform infrared spectroscopy (Supplementary Note 2 and Supplementary Fig. 4).

Values after ≈ are worked out from the molar mass of the structure shown. Peptide text beside a SMILES is read from it. * marks the point of attachment. FITC = O=C1OC2(c3ccc(O)cc3Oc3cc(O)ccc32)c2ccc(NC(=S)*)cc21

On to `CC(C)C[C@H](NC(=O)CNC(=O)[C@H](CCCNC(=N)N)NC(=O)[C@@H]1CCCN1C(=O)[C@H](CCCNC(=N)N)NC(=O)[C@H](CCCNC(=N)N)NC(=O)[C@@H](NC(=O)[C@H](CC(C)C)NC(=O)[C@H](C)NC(=O)[C@H](CC(C)C)NC(=O)CNC(=O)[C@H](CC(C)C)NC(=O)CNC(=O)[C@H](CCCNC(=N)N)NC(=S)Nc1ccc2c(c1)C(=O)OC21c2ccc(O)cc2Oc2cc(O)ccc21)C(C)C)C(=O)NCC(=O)N[C@@H](CC(C)C)C(=O)N[C@@H](C)C(=O)N[C@@H](CC(C)C)C(=O)N[C@H](C(=O)N[C@@H](CCCNC(=N)N)C(=O)N[C@@H](CCCNC(=N)N)C(=O)O)C(C)C` [FITC-P2] ({FITC}-RGLGLALVRRPRGLGLALVRR-OH; N-terminus and C-terminus assumed), for which the “cells positive for FITC (peptide uptake)” value with E. coli O157:H7 [1] (after 15 min, N = 4, mean and s.d.) is recorded as 97.7 ± 2.9%; in the assay with E. coli O157:H7 [1] (after 1 h and beyond), around 100%. Further, the “PI-positive cells (membrane permeabilization)” value in the assay on E. coli O157:H7 [1] (after 15 min) is 2.1 ± 1.3%; in the assay on E. coli O157:H7 [1] (after 3 h) it was 85 ± 13.2%.

Turning to `CC(C)C[C@H](NC(=O)[C@H](C)NC(=O)[C@@H](N)CCCNC(=N)N)C(=O)N[C@@H](CC(C)C)C(=O)N[C@@H](CCCNC(=N)N)C(=O)N[C@H](C(=O)N[C@@H](CC(C)C)C(=O)N[C@@H](CC(C)C)C(=O)N[C@@H](CCCNC(=N)N)C(=O)N[C@@H](CCCNC(=N)N)C(=O)N1CCC[C@H]1C(=O)N[C@@H](CCCNC(=N)N)C(=O)N[C@@H](C)C(=O)N[C@@H](CC(C)C)C(=O)N[C@@H](CC(C)C)C(=O)N[C@H](C(=O)N[C@H](C(=O)N[C@@H](CC(C)C)C(=O)N[C@@H](CC(C)C)C(=O)N[C@@H](CCCNC(=N)N)C(=O)N[C@@H](CCCNC(=N)N)C(=O)O)[C@@H](C)O)[C@@H](C)O)[C@@H](C)O` [P105] (H-RALLRTLLRRPRALLTTLLRR-OH), the MIC against E. coli O157:H7 [2] amounted to 12 mg/L (≈ 4.69 µM). Further, the MBC in the assay on E. coli O157 was 12 mg/L (≈ 4.69 µM).

Consider `CC(C)C[C@H](NC(=O)[C@H](C)NC(=O)[C@H](CCCNC(=N)N)NC(=O)[C@@H]1CCCN1C(=O)[C@H](CCCNC(=N)N)NC(=O)[C@H](CCCNC(=N)N)NC(=O)[C@H](CC(C)C)NC(=O)[C@H](CC(C)C)NC(=O)[C@@H](NC(=O)[C@@H](NC(=O)[C@H](CC(C)C)NC(=O)[C@H](CC(C)C)NC(=O)[C@H](C)NC(=O)[C@H](CCCNC(=N)N)NC(=O)[C@@H](N)CCCNC(=N)N)[C@@H](C)O)[C@@H](C)O)C(=O)N[C@@H](CC(C)C)C(=O)N[C@H](C(=O)N[C@H](C(=O)N[C@@H](CC(C)C)C(=O)N[C@@H](CC(C)C)C(=O)N[C@@H](CCCNC(=N)N)C(=O)N[C@@H](CCCNC(=N)N)C(=O)O)[C@@H](C)O)[C@@H](C)O` [P5R] (H-RRALLTTLLRRPRALLTTLLRR-OH), for which the MIC against E. coli O157:H7 [2] amounted to 12 mg/L (≈ 4.51 µM). The same compound displayed an MBC against E. coli O157 of 12 mg/L (≈ 4.51 µM).

In the assay on E. coli O157:H7 [2], `CC(C)C[C@H](NC(=O)CNC(=O)[C@H](CCCNC(=N)N)NC(=O)[C@@H]1CCCN1C(=O)[C@H](CCCNC(=N)N)NC(=O)[C@H](CCCNC(=N)N)NC(=O)[C@H](C)NC(=O)[C@H](CC(C)C)NC(=O)[C@H](CC(C)C)NC(=O)[C@H](C)NC(=O)[C@H](CC(C)C)NC(=O)[C@H](CC(C)C)NC(=O)CNC(=O)[C@@H](N)CCCNC(=N)N)C(=O)N[C@@H](CC(C)C)C(=O)N[C@@H](C)C(=O)N[C@@H](CC(C)C)C(=O)N[C@@H](CC(C)C)C(=O)N[C@@H](C)C(=O)N[C@@H](CCCNC(=N)N)C(=O)N[C@@H](CCCNC(=N)N)C(=O)O` [P14] (H-RGLLALLARRPRGLLALLARR-OH) registered an MIC of 6 mg/L (≈ 2.55 µM). The minimal bactericidal concentration (MBC) against E. coli O157 is 6 mg/L (≈ 2.55 µM).

In turn, `CC(C)C[C@H](NC(=O)[C@H](C)NC(=O)[C@H](CCCNC(=N)N)NC(=O)[C@@H]1CCCN1C(=O)[C@H](CCCNC(=N)N)NC(=O)[C@H](CCCNC(=N)N)NC(=O)[C@H](CC(C)C)NC(=O)[C@H](CC(C)C)NC(=O)[C@@H](NC(=O)[C@@H](NC(=O)[C@H](CC(C)C)NC(=O)[C@H](CC(C)C)NC(=O)[C@H](C)NC(=O)[C@@H](N)CCCNC(=N)N)[C@@H](C)O)[C@@H](C)O)C(=O)N[C@@H](CC(C)C)C(=O)N[C@H](C(=O)N[C@H](C(=O)N[C@@H](CC(C)C)C(=O)N[C@@H](CC(C)C)C(=O)N[C@@H](CCCNC(=N)N)C(=O)N[C@@H](CCCNC(=N)N)C(=O)O)[C@@H](C)O)[C@@H](C)O` [P5] (H-RALLTTLLRRPRALLTTLLRR-OH) had an MIC in the assay with E. coli O157:H7 [2] of 6 mg/L (≈ 2.4 µM). Besides, in the assay on E. coli O157, the MBC came out at 6 mg/L (≈ 2.4 µM).

As for `CC(C)C[C@H](NC(=O)CNC(=O)[C@H](CCCNC(=N)N)NC(=O)[C@@H]1CCCN1C(=O)[C@H](CCCNC(=N)N)NC(=O)[C@H](CCCNC(=N)N)NC(=O)[C@@H]1CCCN1C(=O)[C@H](CC(C)C)NC(=O)[C@H](C)NC(=O)[C@@H]1CCCN1C(=O)CNC(=O)[C@H](CC(C)C)NC(=O)CNC(=O)[C@@H](N)CCCNC(=N)N)C(=O)NCC(=O)N1CCC[C@H]1C(=O)N[C@@H](C)C(=O)N[C@@H](CC(C)C)C(=O)N1CCC[C@H]1C(=O)N[C@@H](CCCNC(=N)N)C(=O)N[C@@H](CCCNC(=N)N)C(=O)O` [P2Pro] (H-RGLGPALPRRPRGLGPALPRR-OH), the MBC in the assay on E. coli O157 was above 100 mg/L.
